Results taken from US20100285959A1, “HERBICIDAL MIXTURES” (priority 2006, published 2010).

Experiments:
barnyardgrass (ECHCG) = assay: Test 32 greenhouse, simulated flooded rice culture; assay type: in vivo, Echinochloa crus-galli; set-up: scale not given here; conditions: postemergence to flood, 21 DAA
Procedure: (§1) A greenhouse trial was conducted to evaluate the effects of Compound 1 and isoxadifen-ethyl at different ratios in simulated flooded rice culture. Plastic pots (11-cm diameter) were partially filled with non-sterilized Tama silt loam soil containing a 15:57:28 ratio of sand, silt and clay and 2.9% organic matter. Seeds of Heteranthera limosa (ducksalad; HETLI), Cyperus difformis (smallflower umbrella sedge; CYPDI), one stand of Echinochloa crus-galli (barnyardgrass; ECHCG), and one stand of four rice seedlings (Oryza sativa cv. ‘M202’; ORYSA) were planted into a single 11-cm diameter pot for each rate and mixture of rates. To obtain this planting, C. difformis and H. limosa seeds were planted separately on the surface soil layer at particular locations within each pot. Water levels were brought to a puddled condition above the soil surface directly after planting. E. crus-galli and rice seeds were planted in cavity trays in the silt loam soil and transplanted at the 1.5 and 2.0 leaf stage, respectively. E. crus-galli and rice plants were transplanted to about 2-cm depth by transferring plugs from the cavity trays. Plantings were sequential so that these plant species all reached the 2.0- to 2.5-leaf stage in the 11-cm diameter pot at time of treatment. Plantings were established and maintained in a greenhouse with day and night temperatures of about 29.5 and 26.7° C. respectively; supplemental balanced lighting was provided to maintain a 16-hour photoperiod. Pots were fertilized periodically with a 200 ppm solution of commercial Scotts Peters® Professional® General Purpose 20-20-20 Water Soluble Fertilizer, amended to 10 ppm with a commercial iron-chelate micronutrient fertilizer. The solution was supplied at time of watering via a liquid fertilizer injector.
(§2) At treatment time, test pots were flooded to 3 cm above the soil surface and maintained at that water depth for the duration of the test. Chemical treatments were formulated in acetone and applied directly to the paddy water (i.e., postemergence to flood). Make-up volumes of acetone were added to ensure that all pots were treated with a consistent volume. Test pots were maintained in the greenhouse. A randomized complete block design was employed. Five replicates of each treatment, alone and in mixture, were used. Each species was visually evaluated for treatment effects by comparing those treated to untreated controls and rated for plant response after 21 days.

rice (ORYSA) = assay: Test 32 greenhouse, simulated flooded rice culture; assay type: in vivo, Oryza sativa; conditions: postemergence to flood, 21 DAA
Procedure: as §1, §2

giant foxtail (SETFA) = assay: Test 25 field trial, postemergence, growth as percent of control; assay type: in vivo, Setaria faberi
From the text: Corn seeds (hybrid ‘Pioneer 31G96 RR’) were planted in mid spring season, 3.8 cm deep in a clay loam soil having 2% organic matter and a pH of 6.6. Plots were 6.1 m long by 3.0 m wide with rows spaced 76 cm apart. Seeds were spaced 15 cm apart within the rows. The field was managed using conventional tillage practices. […] Giant ragweed and Pennsylvania smartweed could only be evaluated 14 days after application. […] Results are the means of the three replicates. This growth inhibition data was converted to results in the form of “plant growth as a percent of control plant growth” using the calculation “100 minus growth inhibition”.
When this form of Colby's Equation is used, if the observed effects on weeds are less than the expected values, the mixture is synergistic.

corn (ZEAMD) = assay: Test 31 field trial, corn hybrids at V4 growth stage; assay type: in vivo, Zea mays ssp. indentata; conditions: postemergence, 14 DAA; for 34A15 Obs: corn hybrid 34A15; for 34N43 Obs: corn hybrid 34N43; for 35D28 Obs: corn hybrid 35D28; for 3730 Obs: corn hybrid 3730
From the text: Corn seeds of hybrids Pioneer ‘34A15’, ‘34N43’, ‘35D28’, and ‘3730’ were planted in mid-spring season, approximately 3.8 cm deep in a sandy loam soil having 3.8% organic matter and a pH of 6.5. Plots were 9.1 m long by 3.0 m wide with rows spaced 76 cm apart. Seeds were spaced approximately 18 cm apart within the rows. The field was managed using conventional tillage practices. Plots were arranged with hybrid as the main block and herbicide treatments randomized within each block. Treatments were applied to corn in the V4 growth stage using a backpack sprayer delivering a spray volume of 131 L/ha with a pressure of 221 kPa. Treatments consisted of Compound 2 alone and in combination with a premix formulation of foramsulfuron and isoxadifen-ethyl, dissolved or suspended in water containing the spray adjuvants ammonium sulfate, applied at 1 kg/Ha, and methylated seed oil, applied at 1% vol/vol. Effects on the treated corn plants and untreated controls were recorded 14 days after application.

common ragweed (AMBEL) = assay: Test 26 field trial, postemergence; assay type: in vivo, Ambrosia artemisiifolia; set-up: scale not given here
From the text: (§3) Corn seeds (hybrid ‘Pioneer 31G96’) were planted in mid spring season, 3.8 cm deep in a silt loam soil having 2% organic matter and a pH of 6.6. Plots were 6.1 m long by 3.0 m wide with rows spaced 76 cm apart. Seeds were spaced 15 cm apart within the rows. The field was managed using conventional tillage practices. […] All treatments also included a surfactant. […] Some of the weed species could not be evaluated at every timing. […] Results are the means of the three replicates.

[1] = test system: ivyleaf morningglory (IPOHE); assay: Test 26 field trial, postemergence; assay type: in vivo, Ipomoea hederacea; set-up: scale not given here
From the text: as §3

redroot pigweed (AMARE) = assay: Test 24 growth chamber, postemergence; assay type: in vivo, Amaranthus retroflexus; conditions: 17 DAA
Procedure: Plants were treated postemergence at the 2-4 leaf growth stage, and each treatment was replicated three times. […] Plants were watered as needed. […] Results for barley and wheat are the means across varieties of the three replicates, and results for the weeds are the means of the three replicates.

SMILES: Nc1nc(C2CC2)nc(C(=O)O)c1Cl [Compound 1, 6-amino-5-chloro-2-cyclopropyl-4-pyrimidinecarboxylic acid]
- ECHCG Obs (barnyardgrass (ECHCG); Cpd 1 31.25 g a.i./ha): 10
- ECHCG Obs (barnyardgrass (ECHCG); Cpd 1 62.5 g a.i./ha): 19
- ECHCG Obs (barnyardgrass (ECHCG); Cpd 1 125 g a.i./ha): 37
- ORYSA Obs (rice (ORYSA); Cpd 1 31.25 g a.i./ha): 9%
- ORYSA Obs (rice (ORYSA); Cpd 1 62.5 g a.i./ha): 15%
- ORYSA Obs (rice (ORYSA); Cpd 1 125 g a.i./ha): 27%

SMILES: COC(=O)c1nc(C2CC2)nc(N)c1Cl [Compound 2, methyl 6-amino-5-chloro-2-cyclopropyl-4-pyrimidinecarboxylate]
- SETFA Obs (percent of control) (giant foxtail (SETFA); Cpd 2 15 g a.i./ha, 14 DAA): 93%
- SETFA Obs (percent of control) (giant foxtail (SETFA); Cpd 2 15 g a.i./ha, 28 DAA): 98%
- SETFA Obs (percent of control) (giant foxtail (SETFA); Cpd 2 15 g a.i./ha, 56 DAA): 100%
- SETFA Obs (percent of control) (giant foxtail (SETFA); Cpd 2 30 g a.i./ha, 14 DAA): 85%
- SETFA Obs (percent of control) (giant foxtail (SETFA); Cpd 2 30 g a.i./ha, 28 DAA): 88%
- SETFA Obs (percent of control) (giant foxtail (SETFA); Cpd 2 30 g a.i./ha, 56 DAA): 80%
- SETFA Obs (percent of control) (giant foxtail (SETFA); Cpd 2 45 g a.i./ha, 14 DAA): 73%
- SETFA Obs (percent of control) (giant foxtail (SETFA); Cpd 2 45 g a.i./ha, 28 DAA): 80%
- SETFA Obs (percent of control) (giant foxtail (SETFA); Cpd 2 45 g a.i./ha, 56 DAA): 83%
- 34A15 Obs (corn (ZEAMD); Cpd 2 30 g a.i./ha): 25
- 34A15 Obs (corn (ZEAMD); Cpd 2 60 g a.i./ha): 30
- 34N43 Obs (corn (ZEAMD); Cpd 2 30 g a.i./ha): 15%
- 34N43 Obs (corn (ZEAMD); Cpd 2 60 g a.i./ha): 20%
- 35D28 Obs (corn (ZEAMD); Cpd 2 30 g a.i./ha): 60
- 35D28 Obs (corn (ZEAMD); Cpd 2 60 g a.i./ha): 65
- 3730 Obs (corn (ZEAMD); Cpd 2 30 g a.i./ha): 60
- 3730 Obs (corn (ZEAMD); Cpd 2 60 g a.i./ha): 75
- AMBEL Obs (common ragweed (AMBEL); 14 DAA, 30 g a.i./ha): 94
- AMBEL Obs (common ragweed (AMBEL); 14 DAA, 45 g a.i./ha): 67
- AMBEL Obs (common ragweed (AMBEL); 14 DAA, 60 g a.i./ha): 98
- AMBEL Obs (common ragweed (AMBEL); 28 DAA, 30 g a.i./ha): 88
- AMBEL Obs (common ragweed (AMBEL); 28 DAA, 45 g a.i./ha): 95
- AMBEL Obs (common ragweed (AMBEL); 28 DAA, 60 g a.i./ha): 98
- AMBEL Obs (common ragweed (AMBEL); 56 DAA, 30 g a.i./ha): 73
- AMBEL Obs (common ragweed (AMBEL); 56 DAA, 45 g a.i./ha): 95
- AMBEL Obs (common ragweed (AMBEL); 56 DAA, 60 g a.i./ha): 95
- IPOHE Obs ([1]; 14 DAA, 30 g a.i./ha): 90
- IPOHE Obs ([1]; 14 DAA, 45 g a.i./ha): 67
- IPOHE Obs ([1]; 14 DAA, 60 g a.i./ha): 98
- IPOHE Obs ([1]; 28 DAA, 30 g a.i./ha): 95
- IPOHE Obs ([1]; 28 DAA, 45 g a.i./ha): 99
- IPOHE Obs ([1]; 28 DAA, 60 g a.i./ha): 98
- IPOHE Obs ([1]; 56 DAA, 30 g a.i./ha): 88
- IPOHE Obs ([1]; 56 DAA, 45 g a.i./ha): 96
- IPOHE Obs ([1]; 56 DAA, 60 g a.i./ha): 98
- AMARE Obs (scale 0 to 100) (redroot pigweed (AMARE); Cpd 2 4 g a.i./ha): 63
- AMARE Obs (scale 0 to 100) (redroot pigweed (AMARE); Cpd 2 8 g a.i./ha): 67
- AMARE Obs (scale 0 to 100) (redroot pigweed (AMARE); Cpd 2 16 g a.i./ha): 75
